Experiments:
MCAO/R rats (MCAO/R大鼠) [1] = assay: TTC staining of cerebral infarct volume in MCAO/R rats, 24 h after reperfusion (1.2); type: in vivo, rat; conditions: i.p. at reperfusion; for cerebral infarct volume vs. model group: **P<0.01 vs. model group, n=7~11
MCAO/R rats (MCAO/R大鼠) [2] = assay: Neurological function score (mNSS) in MCAO/R rats 24 h after reperfusion (1.3); type: in vivo, rat; conditions: i.p. at reperfusion; for mNSS score vs. model group: **P<0.01 vs. model group, n=7~11
MCAO/R rats (MCAO/R大鼠) [3] = assay: Survival rate of MCAO/R rats, 14-day dosing (2.2); type: in vivo, rat; conditions: treated groups (10, 30, 50 mg/kg); dosing from 24 h after reperfusion, once daily for 14 days; n=9~18; compared with model group (low survival)
[4] = system: histone deacetylase, HDAC (组蛋白去乙酰化酶, HDAC); conditions: in vitro; cited from earlier work
[5] = system: certain transformed cells (某些转化细胞); conditions: in vitro, nanomolar concentration (<250nM); cited from earlier work
tumor cells (肿瘤细胞) = conditions: cited from earlier work
[6] = treated subjects in clinical studies; cited from earlier work
MCAO/R rats (MCAO/R大鼠) [7] = assay: Foot-fault test in MCAO/R rats, days 1, 3, 7, 14 (2.4); conditions: from day 7; treated groups (10, 30, 50 mg/kg), once daily for 14 days from 24 h after reperfusion; *P<0.05, **P<0.01 vs. model group; n=6~9
MCAO/R rats (MCAO/R大鼠) [8] = assay: Recovery of neurological function (mNSS) in MCAO/R rats, days 1, 3, 7, 14 (2.3)

## O=C(/C=C/c1cccc(S(=O)(=O)Nc2ccccc2)c1)NO [贝利司他]
MCAO/R rats (MCAO/R大鼠) [1]; dose group not named
  infarct volume vs. model group: 能够减少MCAO/R大鼠的梗死体积
MCAO/R rats (MCAO/R大鼠) [1]; high dose 50 mg/kg
  cerebral infarct volume vs. model group: 显著降低
MCAO/R rats (MCAO/R大鼠) [1]; medium dose 30 mg/kg
  cerebral infarct volume vs. model group: 显著降低
MCAO/R rats (MCAO/R大鼠) [2]; dose group not named
  neurological motor function score vs. model group: 显著降低
MCAO/R rats (MCAO/R大鼠) [2]; high dose 50 mg/kg
  mNSS score vs. model group: 显著低于模型组
MCAO/R rats (MCAO/R大鼠) [2]; medium dose 30 mg/kg
  mNSS score vs. model group: 显著低于模型组
MCAO/R rats (MCAO/R大鼠) [3]
  survival rate: 明显增高
[4]
  concentration at which HDAC activity is inhibited: < 250 nM
[5]
  accumulation of acetylated histones and other proteins: 可致乙酰化组蛋白及其他蛋白积聚
  cell cycle arrest or apoptosis of certain transformed cells: 诱导细胞周期停滞或某些转化细胞凋亡
Tumor cells (肿瘤细胞)
  cytotoxicity to tumor cells compared with normal cells: 强于正常细胞
[6]
  most common side effects: 恶心、呕吐、乏力、发热和贫血
MCAO/R rats (MCAO/R大鼠) [7]
  foot-fault rate vs. model group: 明显降低
MCAO/R rats (MCAO/R大鼠) [8]; from day 3, treated groups (10, 30, 50 mg/kg), once daily for 14 days from 24 h after reperfusion, *P<0.05, **P<0.01 vs. model group, n=6~9
  mNSS score vs. model group: 显著低于模型组
MCAO/R rats (MCAO/R大鼠) [8]; treated groups, with increasing time of administration (once daily for 14 days)
  neurological motor function: 神经运动功能恢复

Source: patent CN114306299A, “贝利司他在制备缓解和/或治疗缺血性脑卒中药物中的应用” (Institute of Materia Medica of CAMS and PUMC, priority 2020, dated 2022)
